The record followed here is US12486274B2, “Substituted pyrazolo-pyrimidines and uses thereof” (Verge Analytics, Inc., priority 2020, dated 2025).

Where a name gives a salt, the structure may show the parent alone.

Sequence of Full length human recombinant PIKFYVE (Q9Y2I7 whole entry, the tested form may be a part): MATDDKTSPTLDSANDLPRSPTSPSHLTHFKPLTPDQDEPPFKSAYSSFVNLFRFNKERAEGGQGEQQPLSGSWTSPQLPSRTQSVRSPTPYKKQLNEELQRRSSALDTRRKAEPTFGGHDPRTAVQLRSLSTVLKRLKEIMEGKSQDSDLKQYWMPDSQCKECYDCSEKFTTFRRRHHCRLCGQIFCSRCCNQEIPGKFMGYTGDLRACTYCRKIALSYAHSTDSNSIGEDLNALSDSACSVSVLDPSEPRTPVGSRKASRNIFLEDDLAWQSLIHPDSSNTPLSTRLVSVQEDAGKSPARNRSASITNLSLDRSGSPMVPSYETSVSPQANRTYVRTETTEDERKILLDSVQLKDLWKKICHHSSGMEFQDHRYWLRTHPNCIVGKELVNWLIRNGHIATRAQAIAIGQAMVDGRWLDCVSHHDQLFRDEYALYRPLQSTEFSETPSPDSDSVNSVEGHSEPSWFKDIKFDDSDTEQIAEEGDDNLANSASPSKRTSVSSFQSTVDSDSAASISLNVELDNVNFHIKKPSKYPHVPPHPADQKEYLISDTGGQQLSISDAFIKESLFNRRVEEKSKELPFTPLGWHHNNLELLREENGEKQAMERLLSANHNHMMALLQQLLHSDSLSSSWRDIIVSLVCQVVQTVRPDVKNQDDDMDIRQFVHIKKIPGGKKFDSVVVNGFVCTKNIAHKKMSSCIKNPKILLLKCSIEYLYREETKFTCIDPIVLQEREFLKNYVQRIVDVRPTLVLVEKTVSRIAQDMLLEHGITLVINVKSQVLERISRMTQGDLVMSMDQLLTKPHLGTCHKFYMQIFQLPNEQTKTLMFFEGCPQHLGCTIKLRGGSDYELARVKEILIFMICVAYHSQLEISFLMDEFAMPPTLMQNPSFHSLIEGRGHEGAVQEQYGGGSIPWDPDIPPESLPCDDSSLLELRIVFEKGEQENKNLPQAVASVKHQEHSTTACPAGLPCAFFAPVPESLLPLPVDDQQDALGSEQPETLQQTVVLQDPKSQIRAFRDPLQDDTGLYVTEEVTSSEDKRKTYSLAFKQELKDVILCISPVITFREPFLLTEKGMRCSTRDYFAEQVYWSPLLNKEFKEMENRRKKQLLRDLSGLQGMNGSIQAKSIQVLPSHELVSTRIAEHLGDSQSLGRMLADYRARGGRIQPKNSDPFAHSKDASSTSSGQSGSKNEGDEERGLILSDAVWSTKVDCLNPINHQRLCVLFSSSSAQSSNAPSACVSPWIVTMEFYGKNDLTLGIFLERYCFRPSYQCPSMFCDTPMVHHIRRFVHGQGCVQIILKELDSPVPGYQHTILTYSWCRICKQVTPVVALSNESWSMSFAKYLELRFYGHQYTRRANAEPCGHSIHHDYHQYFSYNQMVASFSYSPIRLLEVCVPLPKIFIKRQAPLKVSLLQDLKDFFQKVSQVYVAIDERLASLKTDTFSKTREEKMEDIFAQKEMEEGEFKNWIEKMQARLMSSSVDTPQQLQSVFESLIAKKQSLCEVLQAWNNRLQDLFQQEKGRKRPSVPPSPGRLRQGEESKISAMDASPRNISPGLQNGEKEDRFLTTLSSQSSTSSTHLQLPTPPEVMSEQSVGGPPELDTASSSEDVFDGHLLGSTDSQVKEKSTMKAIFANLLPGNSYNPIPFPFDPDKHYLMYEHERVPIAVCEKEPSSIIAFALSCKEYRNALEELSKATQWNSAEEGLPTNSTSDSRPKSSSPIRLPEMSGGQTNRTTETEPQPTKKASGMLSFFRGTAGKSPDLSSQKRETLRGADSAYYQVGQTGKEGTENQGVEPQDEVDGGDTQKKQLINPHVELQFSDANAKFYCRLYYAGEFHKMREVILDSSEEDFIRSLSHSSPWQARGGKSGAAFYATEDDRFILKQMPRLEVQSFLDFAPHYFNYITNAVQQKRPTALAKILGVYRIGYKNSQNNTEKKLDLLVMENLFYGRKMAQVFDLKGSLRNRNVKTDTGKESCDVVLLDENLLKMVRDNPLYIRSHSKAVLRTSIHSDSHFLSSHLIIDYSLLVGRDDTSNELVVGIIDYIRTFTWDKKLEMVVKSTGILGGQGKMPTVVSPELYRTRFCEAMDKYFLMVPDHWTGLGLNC

The assay addresses Full length human recombinant PIKFYVE (Homo sapiens (Human), UniProt Q9Y2I7). The assay can be described thus: Inhibition of PIKfyve (microfluidic electrophoresis kinase assay). It counts as biochemical. To be noted: 2 nM enzyme, PI3P/PS substrate, 3 h at room temperature, 12 concentrations. The procedure: Full length human recombinant PIKFYVE expressed in baculovirus expression system as N-terminal GST-fusion protein (265 kDa) was obtained from Carna Biosciences (Kobe, Japan). The kinase substrate was prepared by mixing and sonicating fluorescently-labeled phosphatidylinositol 3-phosphate (PI3P) with phospho-L-serine (PS) at a 1:10 ratio in 50 mM HEPES buffer pH7.5.
The kinase reactions were assembled in 384-well plates (Greiner) in a total volume of […] as follows. Kinase protein was pre-diluted in an assay buffer comprising 25 mM HEPES, pH 7.5, 1 mM DTT, 2.5 mM MgCl2, and 2.5 mM MnCl2, and 0.005% Triton X-100, and dispensed into a 384-well plate (10 μL per well). Test compounds were serially pre-diluted in DMSO and added to the protein samples by acoustic dispensing (Labcyte Echo). The concentration of DMSO was equalized to 1% in all samples. All test compounds were tested at 12 concentrations. Apilimod was used as a reference compound and was tested in identical manner in each assay plate. Control samples (0%-inhibition, in the absence of inhibitor, DMSO only) and 100%-inhibition (in the absence of enzyme) were assembled in replicates of four and were used to calculate %-inhibition in the presence of compounds. The reactions were initiated by addition of 10 μL of 2× PI3P/PS substrate supplemented with ATP. The final concentration of enzyme was 2 nM, the final concentration of ATP was 10 mM, and the final concentration of PI3P/PS substrate was 1 μM (PI3P). The kinase reactions were allowed to proceed for 3 h at room temperature. Following incubation, the reactions were quenched by addition of […] of termination buffer (100 mM HEPES, pH 7.5, 0.01% Triton X-100, 20 mM EDTA). Terminated plates were analyzed on a microfluidic electrophoresis instrument (Caliper LabChip® 3000, Caliper Life Sciences/Perkin Elmer). The change in the relative fluorescence intensity of the PI (3) P substrate and PI (3,5) P product peaks was measured. The activity in each test sample was determined as the product to sum ratio (PSR): P/(S+P), where P is the peak height of the product, and S is the peak height of the substrate. Percent inhibition (Pinh) was determined using the following equation: Pinh=(PSR0% inh−PSRcompound)/(PSR0% inh−PSR100% inh)*100 in which PSRcompound is the product/sum ratio in the presence of compound, PSR0% inh is the product/sum ratio in the absence of compound, and the PSR100% inh is the product/sum ratio in the absence of the enzyme.
`Cc1cccc(-c2ccn(-c3cc(N4CCOCC4)n4nc(C(=O)N5CCCCC5)cc4n3)n2)c1` [Example 30, (7-morpholino-5-(3-(m-tolyl)-1H-pyrazol-1-yl)pyrazolo[1,5-a]pyrimidin-2-yl)(piperidin-1-yl)methanone]: the IC50 amounted to 247 nM.
To `Cc1cccc(-c2ccn(-c3cc(N4CCOCC4)n4nc(C(=O)N[C@@H]5CCN(C)C5)cc4n3)n2)c1` [Compound 49, N-[(3R)-1-methylpyrrolidin-3-yl]-7-morpholino-5-[3-(m-tolyl)pyrazol-1-yl]pyrazolo[1,5-a]pyrimidine-2-carboxamide] belongs 112 nM; to `Cc1cccc(-c2ccn(-c3cc(N4CCOCC4)n4nc(C(=O)NCC5(CO)COC5)cc4n3)n2)c1` [Example 44, N-((3-(hydroxymethyl)oxetan-3-yl)methyl)-7-morpholino-5-(3-(m-tolyl)-1H-pyrazol-1-yl)pyrazolo[1,5-a]pyrimidine-2-carboxamide], 79 nM; to `Cc1cccc(-c2ccn(-c3cc(N4CCOCC4)n4nc(-c5cccnc5)cc4n3)n2)n1` [Compound 108, 4-[5-[3-(6-methyl-2-pyridyl)pyrazol-1-yl]-2-(3-pyridyl)pyrazolo[1,5-a]pyrimidin-7-yl]morpholine], 1350 nM.
To `Cc1cccc(-c2cnn(-c3cc(N4CCOCC4)n4nc(-c5ccncn5)cc4n3)c2)c1` [Compound 57, 4-[5-[4-(m-tolyl)pyrazol-1-yl]-2-pyrimidin-4-yl-pyrazolo[1,5-a]pyrimidin-7-yl]morpholine] belongs 3750 nM; to `Cc1cccc(-c2ccn(-c3cc(N4CCOCC4)n4nc(C(=O)N[C@@H]5CCCN(C)C5)cc4n3)n2)c1` [Compound 52, N-[(3R)-1-methyl-3-piperidyl]-7-morpholino-5-[3-(m-tolyl)pyrazol-1-yl]pyrazolo[1,5-a]pyrimidine-2-carboxamide], 28.4 nM.
To `Cc1cccc(-c2cnn(-c3cc(N4CCOCC4)n4nc(-c5ccncc5)cc4n3)c2)c1` [Example 10, 4-[5-[4-(m-tolyl)pyrazol-1-yl]-2-(4-pyridyl)pyrazolo[1,5-a]pyrimidin-7-yl]morpholine] belongs > 10000 nM; to `c1ccc(-c2ccn(-c3cc(N4CCOCC4)n4nc(-c5cncnc5)cc4n3)n2)cc1` [Compound 69, 4-[5-(3-phenylpyrazol-1-yl)-2-pyrimidin-5-yl-pyrazolo[1,5-a]pyrimidin-7-yl]morpholine], 752 nM.
In the case of `CON(C)C(=O)c1cc2nc(-n3ccc(-c4cccc(C)c4)n3)cc(N3CCOCC3)n2n1` [Example 33, N-methoxy-N-methyl-7-morpholino-5-(3-(m-tolyl)-1H-pyrazol-1-yl)pyrazolo[1,5-a]pyrimidine-2-carboxamide], the IC50 is 113 nM.
To `Cc1cccc(-c2cc(Nc3cc(N4CCOCC4)n4nc(-c5ccncc5)cc4n3)[nH]n2)c1` [Example 4, 7-morpholino-N-[3-(m-tolyl)-1H-pyrazol-5-yl]-2-(4-pyridyl)pyrazolo[1,5-a]pyrimidin-5-amine, Hydrogen Chloride Salt] belongs 550 nM; to `Nc1ncc(-c2cc3nc(-n4ccc(-c5ccccc5)n4)cc(N4CCOCC4)n3n2)cn1` [Compound 71, 5-[7-morpholino-5-(3-phenylpyrazol-1-yl)pyrazolo[1,5-a]pyrimidin-2-yl]pyrimidin-2-amine], 143 nM.
To `Cc1cccc(-c2ccn(-c3cc(N4CCOCC4)n4nc(-c5nccs5)cc4n3)n2)c1` [Compound 111, 4-[5-[3-(m-tolyl)pyrazol-1-yl]-2-thiazol-2-yl-pyrazolo[1,5-a]pyrimidin-7-yl]morpholine] belongs 2.7 nM.
Take `Cc1cc(-c2cc3nc(-n4ccc(-c5ccccn5)n4)cc(N4CCOCC4)n3n2)nn1CCN(C)C` [Compound 92, N,N-dimethyl-2-[5-methyl-3-[7-morpholino-5-[3-(2-pyridyl)pyrazol-1-yl]pyrazolo[1,5-a]pyrimidin-2-yl]pyrazol-1-yl]ethanamine]: the IC50 was determined as 5240 nM.
The value for `c1ccc(-c2ccn(-c3cc(N4CCOCC4)n4nc(-c5cc[nH]n5)cc4n3)n2)cc1` [Compound 67, 4-[5-(3-phenylpyrazol-1-yl)-2-(1H-pyrazol-3-yl)pyrazolo[1,5-a]pyrimidin-7-yl]morpholine] was 261 nM; that for `Cc1ccn(-c2cc(N3CCOCC3)n3nc(-c4ccncc4)cc3n2)n1` [Example 16, 4-[5-(3-methylpyrazol-1-yl)-2-(4-pyridyl)pyrazolo[1,5-a]pyrimidin-7-yl]morpholine] was > 10000 nM.
`CC(C)NC(=O)c1cc2nc(-n3cc(-c4ccccc4)cn3)cc(N3CCOCC3)n2n1` [Compound 80, N-isopropyl-7-morpholino-5-(4-phenylpyrazol-1-yl)pyrazolo[1,5-a]pyrimidine-2-carboxamide]: the IC50 was found to be 4390 nM.
The value for `Cc1cc(-c2ccn(-c3cc(N4CCOCC4)n4nc(-c5cccnc5)cc4n3)n2)ccn1` [Compound 103, 4-[5-[3-(2-methyl-4-pyridyl)pyrazol-1-yl]-2-(3-pyridyl)pyrazolo[1,5-a]pyrimidin-7-yl]morpholine] was > 10000 nM.
On to `c1cc(-c2cnn(-c3cc(N4CCOCC4)n4nc(-c5ccncc5)cc4n3)c2)ccn1` [Example 11, 4-[2-(4-pyridyl)-5-[4-(4-pyridyl)pyrazol-1-yl]pyrazolo[1,5-a]pyrimidin-7-yl]morpholine], for which the IC50 was found to be 2600 nM.
To `Cc1cccc(-c2cnn(-c3cc(N4CCOCC4)n4nc(C(=O)NC5CCOCC5)cc4n3)c2)c1` [Compound 56, 7-morpholino-5-[4-(m-tolyl)pyrazol-1-yl]-N-tetrahydropyran-4-yl-pyrazolo[1,5-a]pyrimidine-2-carboxamide] belongs 3420 nM.
The value for `Cc1cccc(-c2ccn(-c3cc(N4CCOCC4)n4nc(C(=O)NCC5CC5)cc4n3)n2)c1` [Example 27, N-(cyclopropylmethyl)-7-morpholino-5-(3-(m-tolyl)-1H-pyrazol-1-yl)pyrazolo[1,5-a]pyrimidine-2-carboxamide] was 73.7 nM; that for `Cc1cccc(-c2ccn(-c3cc(N4CCOCC4)n4nc(-c5cc[nH]n5)cc4n3)n2)c1` [Compound 62, 4-[5-[3-(m-tolyl)pyrazol-1-yl]-2-(1H-pyrazol-3-yl)pyrazolo[1,5-a]pyrimidin-7-yl]morpholine] was 15.8 nM; that for `c1ccc(-c2cnn(-c3cc(N4CCOCC4)n4nc(-c5ccncc5)cc4n3)c2)cc1` [Example 9, 4-[5-(4-phenylpyrazol-1-yl)-2-(4-pyridyl)pyrazolo[1,5-a]pyrimidin-7-yl]morpholine] was > 10000 nM.
For `Cc1cc(-c2ccn(-c3cc(N4CCOCC4)n4nc(-c5cc(C)n(CCN(C)C)n5)cc4n3)n2)ccn1` [Compound 96, N,N-dimethyl-2-[5-methyl-3-[5-[3-(2-methyl-4-pyridyl)pyrazol-1-yl]-7-morpholino-pyrazolo[1,5-a]pyrimidin-2-yl]pyrazol-1-yl]ethanamine], the IC50 was > 10000 nM.
As for `Cc1ccnc(-c2ccn(-c3cc(N4CCOCC4)n4nc(-c5cc(C)n(CCN(C)C)n5)cc4n3)n2)c1` [Compound 95, N,N-dimethyl-2-[5-methyl-3-[5-[3-(4-methyl-2-pyridyl)pyrazol-1-yl]-7-morpholino-pyrazolo[1,5-a]pyrimidin-2-yl]pyrazol-1-yl]ethanamine], the IC50 is 350 nM.
